Results from ChEMBL document CHEMBL4706508, “Discovery of first-in-class multi-target adenosine A receptor antagonists-carbonic anhydrase IX and XII inhibitors. 8-Amino-6-aryl-2-phenyl-1,2,4-triazolo [4,3-a]pyrazin-3-one derivatives as new potential antitumor agents” (Eur J Med Chem, 2020).

How the values were obtained:
Carbonic anhydrase 12 = Carbonic anhydrase 12 (Homo sapiens, UniProt O43570); test: Inhibition of human CA12 incubated for 15 mins by stopped- flow CO2 hydrase assay method
Carbonic anhydrase 1 = Carbonic anhydrase 1 (Homo sapiens, UniProt P00915); test: Inhibition of human CA1 incubated for 15 mins by stopped- flow CO2 hydrase assay method
Adenosine receptor A2a = Adenosine receptor A2a (Homo sapiens, UniProt P29274); test: Displacement of [3H]-NECA from human A2A receptor stably expressed in CHO cell membranes by radioligand competitive binding assay; set-up: species or system Cell membrane
Adenosine receptor A2b = biological target: T1, Adenosine receptor A2b (Homo sapiens, UniProt P29275); test: Antagonist activity at human A2B receptor expressed in CHO cell membrane assessed as reduction in NECA-[…] level by GloSensor CAMP assay; format: cell membranes
T1 sequence (P29275 whole entry): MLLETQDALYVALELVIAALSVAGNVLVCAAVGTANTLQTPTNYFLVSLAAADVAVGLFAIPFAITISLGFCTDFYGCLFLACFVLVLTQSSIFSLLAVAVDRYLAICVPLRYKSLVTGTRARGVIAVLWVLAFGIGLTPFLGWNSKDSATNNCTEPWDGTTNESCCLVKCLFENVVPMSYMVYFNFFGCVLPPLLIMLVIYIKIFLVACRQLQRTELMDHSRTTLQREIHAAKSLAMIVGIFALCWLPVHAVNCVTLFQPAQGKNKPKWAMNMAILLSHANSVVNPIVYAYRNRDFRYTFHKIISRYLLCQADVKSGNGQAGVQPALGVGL

Carbonic anhydrase 2 = Carbonic anhydrase 2 (Homo sapiens, UniProt P00918); test: Inhibition of human CA2 incubated for 15 mins by stopped- flow CO2 hydrase assay method
Carbonic anhydrase 9 = Carbonic anhydrase 9 (Homo sapiens, UniProt Q16790); test: Inhibition of human CA9 incubated for 15 mins by stopped- flow CO2 hydrase assay method
Adenosine receptor A1 = biological target: T2, Adenosine receptor A1 (Homo sapiens, UniProt P30542); test: Displacement of [3H]-CCPA from human A1 receptor stably expressed in CHO cell membranes by radioligand competitive binding assay; set-up: species or system Cell membrane
T2 sequence (P30542 whole entry): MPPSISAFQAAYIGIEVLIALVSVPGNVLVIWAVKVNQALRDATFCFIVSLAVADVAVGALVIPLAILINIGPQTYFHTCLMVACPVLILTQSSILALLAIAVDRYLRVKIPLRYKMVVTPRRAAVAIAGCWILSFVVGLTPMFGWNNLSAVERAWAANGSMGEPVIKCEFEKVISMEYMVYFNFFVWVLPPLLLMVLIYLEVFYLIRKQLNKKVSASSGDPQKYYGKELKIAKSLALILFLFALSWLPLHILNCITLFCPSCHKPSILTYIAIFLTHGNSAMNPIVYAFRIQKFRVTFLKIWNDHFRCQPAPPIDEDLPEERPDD

Adenosine receptor A3 = biological target: T3, Adenosine receptor A3 (Homo sapiens, UniProt P0DMS8); test: Displacement of [3H]-HEMADO from human A3 receptor stably expressed in CHO cell membranes by radioligand competitive binding assay; set-up: species or system Cell membrane
T3 sequence (P0DMS8 whole entry): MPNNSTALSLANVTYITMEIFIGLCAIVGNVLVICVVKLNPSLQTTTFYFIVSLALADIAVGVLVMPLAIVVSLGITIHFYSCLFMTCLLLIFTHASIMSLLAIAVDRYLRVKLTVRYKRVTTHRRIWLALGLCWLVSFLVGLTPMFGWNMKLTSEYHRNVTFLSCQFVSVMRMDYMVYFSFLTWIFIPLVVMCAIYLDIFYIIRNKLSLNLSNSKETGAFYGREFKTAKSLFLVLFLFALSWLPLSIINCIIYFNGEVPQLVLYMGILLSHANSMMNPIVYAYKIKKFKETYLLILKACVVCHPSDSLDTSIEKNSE

Adenosine receptor A2a, sequence (P29274 whole entry): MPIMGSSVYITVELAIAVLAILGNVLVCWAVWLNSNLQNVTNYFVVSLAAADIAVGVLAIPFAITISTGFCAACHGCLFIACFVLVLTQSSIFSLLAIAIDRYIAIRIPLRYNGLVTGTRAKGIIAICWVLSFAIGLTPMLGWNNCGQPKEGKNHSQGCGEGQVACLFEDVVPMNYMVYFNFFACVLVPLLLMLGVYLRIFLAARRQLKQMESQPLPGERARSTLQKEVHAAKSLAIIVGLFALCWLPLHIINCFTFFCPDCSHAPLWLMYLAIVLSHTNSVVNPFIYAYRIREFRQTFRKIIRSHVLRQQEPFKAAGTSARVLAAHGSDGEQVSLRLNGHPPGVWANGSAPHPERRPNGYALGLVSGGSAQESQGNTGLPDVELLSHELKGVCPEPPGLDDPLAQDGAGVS
Carbonic anhydrase 12, sequence (O43570 whole entry): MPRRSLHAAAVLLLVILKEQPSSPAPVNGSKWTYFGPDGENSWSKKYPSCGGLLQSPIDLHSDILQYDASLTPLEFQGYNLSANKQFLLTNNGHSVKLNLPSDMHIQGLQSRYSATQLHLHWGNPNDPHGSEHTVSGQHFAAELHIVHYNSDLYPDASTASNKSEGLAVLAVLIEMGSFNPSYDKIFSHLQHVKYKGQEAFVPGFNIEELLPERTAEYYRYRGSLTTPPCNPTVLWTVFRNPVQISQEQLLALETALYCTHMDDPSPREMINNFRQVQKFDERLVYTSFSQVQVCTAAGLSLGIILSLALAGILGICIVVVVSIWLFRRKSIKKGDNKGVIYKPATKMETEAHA
Carbonic anhydrase 1, sequence (P00915 whole entry): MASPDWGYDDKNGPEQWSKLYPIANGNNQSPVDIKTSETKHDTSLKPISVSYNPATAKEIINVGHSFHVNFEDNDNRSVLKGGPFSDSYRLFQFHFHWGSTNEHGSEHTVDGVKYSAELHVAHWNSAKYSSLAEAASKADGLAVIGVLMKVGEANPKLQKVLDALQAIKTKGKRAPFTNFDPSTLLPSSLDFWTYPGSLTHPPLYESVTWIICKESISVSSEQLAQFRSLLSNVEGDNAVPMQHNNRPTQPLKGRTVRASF

Row | Compound | Ki (Carbonic anhydrase 12) | Ki (Carbonic anhydrase 1) | Ki (Adenosine receptor A2a) | IC50 (Adenosine receptor A2b) | Ki (Carbonic anhydrase 2) | Ki (Carbonic anhydrase 9) | Ki (Adenosine receptor A1) | Ki (Adenosine receptor A3)
1 | Nc1nc(-c2ccccc2O)cn2c(=O)n(-c3ccccc3)nc12 | > 100000 nM | > 100000 nM | – | > 30000 nM | 19000 nM | > 100000 nM | – | –
2 | Nc1nc(-c2ccc(NC(=O)c3ccc(S(N)(=O)=O)cc3)cc2)cn2c(=O)n(-c3ccccc3)nc12 | 6 nM | 8350 nM | – | > 30000 nM | 46 nM | 466 nM | 4190 nM | > 30000 nM
3 | Nc1nc(-c2ccc(NC(=O)c3ccc(C(=O)NO)cc3)cc2)cn2c(=O)n(-c3ccccc3)nc12 | > 100000 nM | > 100000 nM | 36 nM | > 30000 nM | 63000 nM | > 100000 nM | 395 nM | 546 nM
4 | Nc1nc(-c2ccc(NC(=O)CCNC(=O)c3ccc(S(N)(=O)=O)cc3)cc2)cn2c(=O)n(-c3ccccc3)nc12 | 27 nM | 51.5 nM | – | > 30000 nM | 8.6 nM | 5 nM | 1070 nM | > 30000 nM
5 | Nc1nc(-c2ccc(NC(=O)CCNC(=O)c3cccc(S(N)(=O)=O)c3)cc2)cn2c(=O)n(-c3ccccc3)nc12 | 830 nM | 7280 nM | 9.2 nM | > 30000 nM | 341 nM | 6920 nM | 418 nM | > 30000 nM
6 | Nc1nc(-c2ccc(OCCNC(=O)c3ccc(S(N)(=O)=O)cc3)cc2)cn2c(=O)n(-c3ccccc3)nc12 | 528 nM | 934 nM | 6.8 nM | > 30000 nM | 183 nM | 5950 nM | 420 nM | 6650 nM
7 | Nc1nc(-c2ccc(NC(=O)c3cccc(S(N)(=O)=O)c3)cc2)cn2c(=O)n(-c3ccccc3)nc12 | 303 nM | 2290 nM | 13.5 nM | > 30000 nM | 367 nM | 810 nM | 1210 nM | > 30000 nM
8 | Nc1nc(-c2ccc(OCCNCCc3ccc(S(N)(=O)=O)cc3)cc2)cn2c(=O)n(-c3ccccc3)nc12 | 795 nM | 973 nM | 87.9 nM | > 30000 nM | 934 nM | 9460 nM | 283 nM | 7010 nM
9 | Nc1nc(-c2ccc(NC(=O)CCC(=O)O)cc2)cn2c(=O)n(-c3ccccc3)nc12 | > 100000 nM | > 100000 nM | 573 nM | > 30000 nM | > 100000 nM | > 100000 nM | 2300 nM | 6960 nM
10 | COc1ccc(C(=O)Nc2ccc(-c3cn4c(=O)n(-c5ccccc5)nc4c(N)n3)cc2)cc1OC | > 100000 nM | > 100000 nM | 20.6 nM | > 30000 nM | > 100000 nM | > 100000 nM | 98.8 nM | > 30000 nM

Next, values leading:

Row | Ki (Carbonic anhydrase 12) | Ki (Carbonic anhydrase 1) | Ki (Adenosine receptor A2a) | IC50 (Adenosine receptor A2b) | Ki (Carbonic anhydrase 2) | Ki (Carbonic anhydrase 9) | Ki (Adenosine receptor A1) | Ki (Adenosine receptor A3) | Compound
11 | > 100000 nM | > 100000 nM | 9 nM | > 30000 nM | 31700 nM | 44300 nM | 546 nM | 1250 nM | Nc1nc(-c2ccc(NC(=O)c3ccc(O)c(O)c3)cc2)cn2c(=O)n(-c3ccccc3)nc12
12 | 41.5 nM | 9000 nM | 96.3 nM | > 30000 nM | 6760 nM | 319 nM | 839 nM | > 30000 nM | Nc1nc(-c2ccc(NC(=O)CCNCc3ccc(S(N)(=O)=O)cc3)cc2)cn2c(=O)n(-c3ccccc3)nc12
13 | 358 nM | 2090 nM | 3890 nM | > 30000 nM | 464 nM | 6730 nM | 435 nM | 19500 nM | CN(C)c1nc(-c2ccc(S(N)(=O)=O)cc2)cn2c(=O)n(-c3ccccc3)nc12
14 | 0.263 nM | 8710 nM | 10.6 nM | > 30000 nM | 526 nM | 109 nM | 1030 nM | 5830 nM | Nc1nc(-c2ccc(NC(=O)CCNCCc3ccc(S(N)(=O)=O)cc3)cc2)cn2c(=O)n(-c3ccccc3)nc12
15 | > 100000 nM | > 100000 nM | – | > 30000 nM | > 100000 nM | > 100000 nM | – | – | Nc1nc(-c2ccc(O)cc2)cn2c(=O)n(-c3ccccc3)nc12
16 | > 100000 nM | > 100000 nM | 6300 nM | > 30000 nM | > 100000 nM | > 100000 nM | 771 nM | > 30000 nM | CCOC(=O)CNc1ccc(-c2cn3c(=O)n(-c4ccccc4)nc3c(N)n2)cc1
17 | > 100000 nM | > 100000 nM | 1360 nM | > 30000 nM | > 100000 nM | > 100000 nM | 7480 nM | > 30000 nM | CCOC(=O)c1ccc(C(=O)Nc2ccc(-c3cn4c(=O)n(-c5ccccc5)nc4c(N)n3)cc2)cc1
18 | 4400 nM | > 100000 nM | 41.2 nM | > 30000 nM | 47300 nM | > 100000 nM | 194 nM | 1070 nM | Nc1nc(-c2ccc(NC(=O)c3ccc(O)cc3)cc2)cn2c(=O)n(-c3ccccc3)nc12
19 | 625 nM | 570 nM | 27.9 nM | > 30000 nM | 897 nM | 5970 nM | 87.7 nM | > 30000 nM | Nc1nc(-c2ccc(NCc3ccc(S(N)(=O)=O)cc3)cc2)cn2c(=O)n(-c3ccccc3)nc12
20 | 602 nM | 8020 nM | 857 nM | > 30000 nM | 703 nM | 8920 nM | 205 nM | 14800 nM | Nc1nc(-c2ccc(S(N)(=O)=O)cc2)cn2c(=O)n(-c3ccccc3)nc12
21 | > 100000 nM | > 100000 nM | 81.2 nM | > 30000 nM | > 100000 nM | > 100000 nM | 2370 nM | > 30000 nM | Nc1nc(-c2ccc(NC(=O)c3ccc(C(=O)O)cc3)cc2)cn2c(=O)n(-c3ccccc3)nc12
22 | > 100000 nM | > 100000 nM | – | > 30000 nM | 93000 nM | > 100000 nM | – | – | Nc1nc(-c2cccc(O)c2)cn2c(=O)n(-c3ccccc3)nc12
23 | 25.7 nM | 589 nM | 26 nM | > 30000 nM | 246 nM | 9450 nM | 131 nM | 6760 nM | Nc1nc(-c2ccc(NCC(=O)c3ccc(S(N)(=O)=O)cc3)cc2)cn2c(=O)n(-c3ccccc3)nc12
24 | > 100000 nM | > 100000 nM | 0.7 nM | > 30000 nM | > 100000 nM | > 100000 nM | 418 nM | 279 nM | COc1ccc(C(=O)Nc2ccc(-c3cn4c(=O)n(-c5ccccc5)nc4c(N)n3)cc2)cc1
